Results from US20240197726A1, “NOVEL TETRAHYDROISOQUINOLINE ALKALOID COMPOUND CONTAINING MACROCYCLE” (THE UNIVERSITY OF TOKYO, priority 2021, published 2024).
Where two headings read alike, the source gives them in different places.

Assays:
Type in all cases: cell-based
[1] = tested on: HCT-116 colorectal cancer cells; test: antitumor activity, sulforhodamine B cell growth assay, HCT-116
Procedure: (§1) The THIQ compound containing a macrocyclic structure of the present invention was administered to various cancer cell lines, and the antitumor activity (Go value) was observed. Specifically, verification was performed according to the literature (Yamori, T.; Matsunaga, A.; Sato, S.; Yamazaki, K.; Komi, A.; Ishizu, K. et al. Cancer Res. 1999, 59, 4042) by the following procedure.
(§2) Cells were plated at an appropriate density in a 96-well plate in RPMI 1640 together with 5% fetal bovine serum, and adhered overnight. The cells were exposed to a drug for 48 hours. Then, according to the sulforhodamine B assay described by Skehan et al (Skehan P., Storeng R., Scudiero D., Monks A., McMahon J., Vistica D., Warren J. T., Bokesch H., Kenney S., Boyd M. R. J Natl. Cancer Inst, 1990, 82, 1107-1112), the cell growth rate was measured. The absorbance of the control well (C) and the test well (T) was measured at 525 nm. In addition, the time at which the drug was added was set as time 0, and the absorbance for the test well (T0) was measured. Using these measured values, the cell growth inhibitory effect (% growth=PG) was calculated by the following formula at each concentration of the drug.
(§3) (T<T0): PG=100×[(T−T0)/T]
(§4) The PG values determined above for each cell line were plotted against the concentration (logarithm) on a semi-logarithmic graph, and summarized for each visceral cancer. Concentrations at which the dose-response curve of each cell line crossed the horizontal line of PG=50%, 0%, or −50% were calculated. These concentrations were defined as Log GI50, Log TGI, and Log LC50. Actually, using two data points of the drug concentration before and after crossing each horizontal line, the drug concentration (logarithmic value) at the intersection of the straight line connecting the two points and the horizontal line for each PG was calculated.

[2] = tested on: OVCAR-5 cervical cancer cells; test: antitumor activity, sulforhodamine B cell growth assay, OVCAR-5
Procedure: as §1, §2, §3, §4

[3] = tested on: MKN-B gastric cancer cells; test: antitumor activity, sulforhodamine B cell growth assay, MKN-B
Procedure: as §1, §2, §3, §4

[4] = tested on: SNB-75 central nervous system cancer cells; test: antitumor activity, sulforhodamine B cell growth assay, SNB-75
Procedure: as §1, §2, §3, §4

[5] = tested on: HT-29 colorectal cancer cells; test: antitumor activity, sulforhodamine B cell growth assay, HT-29
Procedure: as §1, §2, §3, §4

OVCAR-8 cancer cells = test: antitumor activity, sulforhodamine B cell growth assay, OVCAR-8
Procedure: as §1, §2, §3, §4

[6] = tested on: HBC-4 breast cancer cells; test: antitumor activity, sulforhodamine B cell growth assay, HBC-4
Procedure: as §1, §2, §3, §4

[7] = tested on: HCT-15 colorectal cancer cells; test: antitumor activity, sulforhodamine B cell growth assay, HCT-15
Procedure: as §1, §2, §3, §4

[8] = tested on: MKN1 gastric cancer cells; test: antitumor activity, sulforhodamine B cell growth assay, MKN1
Procedure: as §1, §2, §3, §4

[9] = tested on: RXF-631L kidney cancer cells; test: antitumor activity, sulforhodamine B cell growth assay, RXF-631L
Procedure: as §1, §2, §3, §4

[10] = tested on: SNB-78 central nervous system cancer cells; test: antitumor activity, sulforhodamine B cell growth assay, SNB-78
Procedure: as §1, §2, §3, §4

[11] = tested on: DU-145 prostate cancer cells; test: antitumor activity, sulforhodamine B cell growth assay, DU-145
Procedure: as §1, §2, §3, §4

[12] = tested on: NCI-H460 lung cancer cells; test: antitumor activity, sulforhodamine B cell growth assay, NCI-H460
Procedure: as §1, §2, §3, §4

[13] = tested on: MKN-A gastric cancer cells; test: antitumor activity, sulforhodamine B cell growth assay, MKN-A
Procedure: as §1, §2, §3, §4

[14] = tested on: St-4 gastric cancer cells; test: antitumor activity, sulforhodamine B cell growth assay, St-4
Procedure: as §1, §2, §3, §4

SK-OV-3 cancer cells = test: antitumor activity, sulforhodamine B cell growth assay, SK-OV-3
Procedure: as §1, §2, §3, §4

A549 lung cancer cells = test: antitumor activity, sulforhodamine B cell growth assay, A549
Procedure: as §1, §2, §3, §4

[15] = tested on: NCI-H522 lung cancer cells; test: antitumor activity, sulforhodamine B cell growth assay, NCI-H522
Procedure: as §1, §2, §3, §4

[16] = tested on: various cancer cell lines; test: Verification of antitumor activity, whole panel of cancer cell lines; details: in words, compared with Cyanosafracin B
Procedure: as §1, §2, §3, §4

[17] = MKN-B, drug exposure 48 hours, read-out: GI50 value: 50% growth inhibitory concentration
[18] = RXF-631L, drug exposure 48 hours, read-out: GI50 value: 50% growth inhibitory concentration
[19] = MKN-A, drug exposure 48 hours, read-out: GI50 value: 50% growth inhibitory concentration
[20] = St-4 (SI-4 in Tables 2-11), drug exposure 48 hours, read-out: GI50 value: 50% growth inhibitory concentration

SMILES: CC1=C(C)C(=O)C2=C(CC3(C)[C@H]4c5c(cc(C)c(C)c5C)C[C@@](C)(C(C)N3[C@H]2CNC(=O)C(C)C)N4C)C1=O (stereo partly shown) [drawing 160]
- GI50 ([1]; Homo sapiens, HCT-116 colorectal cancer cells, read-out: antitumor activity GI50 value: 50% growth inhibitory concentration): 290 nM
- GI50 ([2]; Homo sapiens, OVCAR-5 cervical cancer cells, read-out: antitumor activity GI50 value: 50% growth inhibitory concentration): 390 nM
- GI50 ([3]; MKN-B gastric cancer cells, read-out: antitumor activity GI50 value: 50% growth inhibitory concentration): 170 nM
- GI50 ([4]; Homo sapiens, SNB-75 central nervous system cancer cells, read-out: antitumor activity GI50 value: 50% growth inhibitory concentration): 150 nM
- GI50 ([5]; Homo sapiens, HT-29 colorectal cancer cells, read-out: antitumor activity GI50 value: 50% growth inhibitory concentration): 190 nM
- GI50 (OVCAR-8 cancer cells; Homo sapiens, OVCAR-8 cervical cancer cells, read-out: antitumor activity GI50 value: 50% growth inhibitory concentration): 290 nM
- GI50 ([6]; HBC4, HBC-4 breast cancer cells, read-out: antitumor activity GI50 value: 50% growth inhibitory concentration): 59 nM
- GI50 ([7]; Homo sapiens, HCT-15 colorectal cancer cells, read-out: antitumor activity GI50 value: 50% growth inhibitory concentration): 390 nM
- GI50 ([8]; Homo sapiens, MKN-1, MKN1 gastric cancer cells, read-out: antitumor activity GI50 value: 50% growth inhibitory concentration): 52 nM
- GI50 ([9]; RXF-631L kidney cancer cells, read-out: antitumor activity GI50 value: 50% growth inhibitory concentration): 400 nM
- GI50 ([10]; Homo sapiens, SNB-78 central nervous system cancer cells, read-out: antitumor activity GI50 value: 50% growth inhibitory concentration): 63 nM
- GI50 ([11]; Homo sapiens, DU-145 prostate cancer cells, read-out: antitumor activity GI50 value: 50% growth inhibitory concentration): 490 nM
- GI50 ([12]; Homo sapiens, NCI-H460, NCl--H460 lung cancer cells, read-out: antitumor activity GI50 value: 50% growth inhibitory concentration): 400 nM
- GI50 ([13]; MKN-A gastric cancer cells, read-out: antitumor activity GI50 value: 50% growth inhibitory concentration): 250 nM
- GI50 ([14]; SI-4 gastric cancer cells, read-out: antitumor activity GI50 value: 50% growth inhibitory concentration): 430 nM
- GI50 (SK-OV-3 cancer cells; Homo sapiens, SK-OV-3 cervical cancer cells, read-out: antitumor activity GI50 value: 50% growth inhibitory concentration): 540 nM
- GI50 (A549 lung cancer cells; Homo sapiens, A549 lung cancer cells, read-out: antitumor activity GI50 value: 50% growth inhibitory concentration): 1600 nM
- GI50 ([15]; Homo sapiens, NCI-H522, NCl-H522 lung cancer cells, read-out: antitumor activity GI50 value: 50% growth inhibitory concentration): 43 nM

SMILES: C#CCN1C/C=C/C(=C)COc2c(C)c3c(c4c2C[C@H]2[C@H]5c6c(cc(C)c(OC)c6O)C[C@@H]([C@H](C#N)N2C4CNC(=O)[C@@H]1C)N5C)OCO3 [Compound 35]
- GI50 ([1]; Homo sapiens, HCT-116, drug exposure 48 hours, read-out: GI50 value: 50% growth inhibitory concentration): 2.7 nM
- GI50 ([2]; Homo sapiens, OVCAR-5, drug exposure 48 hours, read-out: GI50 value: 50% growth inhibitory concentration): 3.3 nM
- GI50 [3, 17]: 3.5 nM
- GI50 ([4]; Homo sapiens, SNB-75, drug exposure 48 hours, read-out: GI50 value: 50% growth inhibitory concentration): 1.7 nM
- GI50 ([5]; Homo sapiens, HT-29, drug exposure 48 hours, read-out: GI50 value: 50% growth inhibitory concentration): 3.2 nM
- GI50 (OVCAR-8 cancer cells; Homo sapiens, OVCAR-8, drug exposure 48 hours, read-out: GI50 value: 50% growth inhibitory concentration): 3.1 nM
- GI50 ([6]; HBC4, HBC-4, drug exposure 48 hours, read-out: GI50 value: 50% growth inhibitory concentration): 2.2 nM
- GI50 ([7]; Homo sapiens, HCT-15, drug exposure 48 hours, read-out: GI50 value: 50% growth inhibitory concentration): 4.5 nM
- GI50 ([8]; Homo sapiens, MKN-1, MKN1, drug exposure 48 hours, read-out: GI50 value: 50% growth inhibitory concentration): 2.7 nM
- GI50 [9, 18]: 2.9 nM
- GI50 ([10]; Homo sapiens, SNB-78, drug exposure 48 hours, read-out: GI50 value: 50% growth inhibitory concentration): 3.4 nM
- GI50 ([11]; Homo sapiens, DU-145, drug exposure 48 hours, read-out: GI50 value: 50% growth inhibitory concentration): 3.8 nM
- GI50 ([12]; Homo sapiens, NCI-H460, drug exposure 48 hours, read-out: GI50 value: 50% growth inhibitory concentration): 3.4 nM
- GI50 [13, 19]: 3.7 nM
- GI50 [14, 20]: 3.8 nM
- GI50 (SK-OV-3 cancer cells; Homo sapiens, SK-OV-3, drug exposure 48 hours, read-out: GI50 value: 50% growth inhibitory concentration): 6.5 nM
- GI50 (A549 lung cancer cells; Homo sapiens, A549, drug exposure 48 hours, read-out: GI50 value: 50% growth inhibitory concentration): 7.2 nM
- GI50 ([15]; Homo sapiens, NCI-H522, drug exposure 48 hours, read-out: GI50 value: 50% growth inhibitory concentration): 1.1 nM

SMILES: COc1c(C)cc2c(c1O)C1C3Cc4c5c(C)c6c(c4C(CNC(=O)C(C)NC(=O)OCC4C=C(CO5)CC5C(=O)N(c7ccccc7)C(=O)C45)N3C(C#N)C(C2)N1C)OCO6 (stereo not shown) [Compound 18]
- GI50 ([1]; HCT-116, drug exposure 48 hours, read-out: GI50 value: 50% growth inhibitory concentration): 74 nM
- GI50 ([2]; OVCAR-5, drug exposure 48 hours, read-out: GI50 value: 50% growth inhibitory concentration): 280 nM
- GI50 [3, 17]: 160 nM
- GI50 ([4]; SNB-75, drug exposure 48 hours, read-out: GI50 value: 50% growth inhibitory concentration): 50 nM
- GI50 ([5]; HT-29, drug exposure 48 hours, read-out: GI50 value: 50% growth inhibitory concentration): 72 nM
- GI50 (OVCAR-8 cancer cells; OVCAR-8, drug exposure 48 hours, read-out: GI50 value: 50% growth inhibitory concentration): 130 nM
- GI50 ([6]; HBC-4, drug exposure 48 hours, read-out: GI50 value: 50% growth inhibitory concentration): 30 nM
- GI50 ([7]; HCT-15, drug exposure 48 hours, read-out: GI50 value: 50% growth inhibitory concentration): 630 nM
- antitumor activity [16]: better antitumor activity than Cyanosafracin B
- GI50 ([8]; MKN1, drug exposure 48 hours, read-out: GI50 value: 50% growth inhibitory concentration): 50 nM
- GI50 [9, 18]: 310 nM
- GI50 ([10]; SNB-78, drug exposure 48 hours, read-out: GI50 value: 50% growth inhibitory concentration): 40 nM
- GI50 ([11]; DU-145, drug exposure 48 hours, read-out: GI50 value: 50% growth inhibitory concentration): 330 nM
- GI50 ([12]; NCI-H460, drug exposure 48 hours, read-out: GI50 value: 50% growth inhibitory concentration): 260 nM
- GI50 [13, 19]: 210 nM
- GI50 [14, 20]: 300 nM
- GI50 (SK-OV-3 cancer cells; SK-OV-3, drug exposure 48 hours, read-out: GI50 value: 50% growth inhibitory concentration): 410 nM
- GI50 (A549 lung cancer cells; A549, drug exposure 48 hours, read-out: GI50 value: 50% growth inhibitory concentration): 540 nM
- GI50 ([15]; NCI-H522, drug exposure 48 hours, read-out: GI50 value: 50% growth inhibitory concentration): 20 nM
